Reference: US10787571B2, “Oxidation color developable compound and oxidation color development reagent” (DOJINDO LABORATORIES, priority 2017, dated 2020)

What was measured:
[1] = Solution stability under photo irradiation (optical stability); assay type: physicochemical; conditions: 0.25 mM in 50 mM MES buffer (pH 6.5), under fluorescent lamp, temporal change in absorbance at 650 nm; FIG. 1
Procedure: Solution stability under photo irradiation was tested as follows. Each sample solution of Compound A, B, C and D according to the invention and DA-67 was prepared with 50 mM MES buffer (pH 6.5) in the concentration of 0.25 mM. Temporal change in the absorbance at 650 nm of each reagent prepared placed under fluorescent lamp was monitored.

[2] = Accelerated stability in the quantification of UA (uric acid); assay type: physicochemical; conditions: stored at 40° C., day 7, 14, 21 and 28; low concentration region of UA (2.1 mg/dL); FIG. 14
Procedure: At day 7, 14, 21 and 28, the reagents (wrapped with aluminum foil) stored in a chamber at 40° C. were taken out and brought back to room temperature. Also, the samples were taken out of a freezing chamber and naturally thawed at room temperature. They were mixed on a vortex mixer and used for the measurement. The absorbance was measurement similarly to the measurement of the linearity.

[3] = general statement on the conventional reagent; cited from earlier work

Structure (SMILES) | optical stability [1] | order of accelerated stabilities [2] | solubility in water (stated drawback) [3]
CN(C)c1ccc2c(c1)Sc1cc(N(C)C)ccc1N2C(=O)NCCS(=O)(=O)O [Compound A] | DA-67 ≃Compound B according to the invention≈Compound C according to the invention<Compound A according to the invention<Compound D according to the invention | Compound A according to the invention>Compound D according to the invention≈DA-67>Compound B according to the invention>Compound C according to the invention | –
CN(C)c1ccc2c(c1)Sc1cc(N(C)C)ccc1N2C(=O)NCCC(=O)O [Compound B] | DA-67 ≃Compound B according to the invention≈Compound C according to the invention<Compound A according to the invention<Compound D according to the invention | Compound A according to the invention>Compound D according to the invention≈DA-67>Compound B according to the invention>Compound C according to the invention | –
CN(C)c1ccc2c(c1)Sc1cc(N(C)C)ccc1N2C(=O)NCC(=O)NCC(=O)O [Compound D] | DA-67 ≃Compound B according to the invention≈Compound C according to the invention<Compound A according to the invention<Compound D according to the invention | Compound A according to the invention>Compound D according to the invention≈DA-67>Compound B according to the invention>Compound C according to the invention | –
CN(C)c1ccc2c(c1)Sc1cc(N(C)C)ccc1N2C(=O)NCC(=O)O [DA-67, reference compound] | DA-67 ≃Compound B according to the invention≈Compound C according to the invention<Compound A according to the invention<Compound D according to the invention | Compound A according to the invention>Compound D according to the invention≈DA-67>Compound B according to the invention>Compound C according to the invention | poor solubility in water
